# Target: PI3Kalpha (Homo sapiens (Human), UniProt P42336)
# Details: read-out: IC50 PI3K
# Chain of PI3Kalpha (P42336 whole entry, looked up): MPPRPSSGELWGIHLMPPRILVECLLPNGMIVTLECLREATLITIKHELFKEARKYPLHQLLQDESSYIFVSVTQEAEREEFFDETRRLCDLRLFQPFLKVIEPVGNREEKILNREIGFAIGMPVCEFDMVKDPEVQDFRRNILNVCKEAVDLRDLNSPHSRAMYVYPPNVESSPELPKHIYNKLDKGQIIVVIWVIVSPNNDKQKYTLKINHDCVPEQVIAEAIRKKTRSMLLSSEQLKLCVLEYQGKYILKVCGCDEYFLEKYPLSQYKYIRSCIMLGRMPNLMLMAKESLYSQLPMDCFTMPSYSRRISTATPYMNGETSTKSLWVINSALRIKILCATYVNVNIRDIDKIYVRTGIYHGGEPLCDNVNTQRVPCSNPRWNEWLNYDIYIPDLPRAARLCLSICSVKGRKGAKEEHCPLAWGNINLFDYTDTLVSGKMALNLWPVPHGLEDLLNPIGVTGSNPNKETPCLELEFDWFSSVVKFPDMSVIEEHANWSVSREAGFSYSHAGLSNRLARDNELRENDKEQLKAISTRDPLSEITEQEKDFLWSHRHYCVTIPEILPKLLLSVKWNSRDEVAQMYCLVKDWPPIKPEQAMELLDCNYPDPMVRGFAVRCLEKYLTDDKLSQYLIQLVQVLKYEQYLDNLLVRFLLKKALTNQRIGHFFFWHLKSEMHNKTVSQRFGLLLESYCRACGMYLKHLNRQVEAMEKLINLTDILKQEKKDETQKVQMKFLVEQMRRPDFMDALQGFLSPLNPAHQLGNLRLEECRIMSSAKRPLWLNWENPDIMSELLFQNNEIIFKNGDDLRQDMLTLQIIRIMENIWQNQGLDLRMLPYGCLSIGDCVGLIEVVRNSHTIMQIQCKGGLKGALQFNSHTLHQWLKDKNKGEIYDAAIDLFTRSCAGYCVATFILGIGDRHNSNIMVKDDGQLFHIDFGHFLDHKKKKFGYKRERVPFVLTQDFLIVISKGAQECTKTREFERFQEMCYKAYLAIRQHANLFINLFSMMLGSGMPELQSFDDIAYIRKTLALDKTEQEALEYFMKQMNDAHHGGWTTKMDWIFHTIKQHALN
row,SMILES,IC50
1,CCc1ncnc(-c2cc(F)c(C(=O)N3CCn4cnnc4C3)c(F)c2)c1C#Cc1ccc(N)nc1 [Example E-148],0.0706 µM
2,CCc1ncnc(-c2cc(Cl)c(C(=O)N3CCN(C)C(=O)C3)c(Cl)c2)c1C#Cc1ccc(N)nc1 [Example E-195],0.0203 µM
3,CCc1ncnc(-c2ccc(C(=O)N3CCN(C4CCS(=O)(=O)C4)CC3)c(F)c2)c1C#Cc1ccc(N)nc1C [Example D-17],0.178 µM
4,CCc1ncnc(-c2ccc(C(=O)N3CC4(CNC4)C3)c(Cl)c2)c1C#Cc1ccc(N)nc1 [Example E-270],0.328 µM
5,CCc1ncnc(-c2ccc(C(=O)NC3CCCN(C)C3)c(F)c2)c1C#Cc1ccc(N)nc1 [Example D-197],0.28 µM
6,Cc1ncnc(-c2ccccc2)c1C#Cc1ccc(N)nc1 [Example C-7],0.039 µM
7,CCc1cc(-c2ncnc(CC)c2C#Cc2ccc(N)nc2)ccn1 [Example C-3],0.04 µM
8,CCc1ncnc(-c2ccc(C(=O)N3CC[C@H](N(C)C)C3)c(OC)c2)c1C#Cc1ccc(N)nc1 [Example E-55],0.148 µM
9,CCc1ncnc(-c2ccc(C(=O)N3CCCC(N(C)C)C3)c(OC)c2)c1C#Cc1ccc(N)nc1 (centres unmarked) [Example E-51],0.205 µM
10,CCCCN1CCN(C(=O)c2ccc(-c3ncnc(C)c3C#Cc3ccc(N)nc3)cc2)CC1 [Example D-190],0.153 µM
11,CCc1ncnc(-c2ccc(C(=O)N3CCNC(=O)C3)c(OC)c2)c1C#Cc1ccc(N)nc1 [Example D-59],0.019 µM
12,CCc1ncnc(-c2ccc(C(=O)N3CCC4(CCN(C)C4)C3)c(C)c2)c1C#Cc1ccc(N)nc1 (centres unmarked) [Example E-112],0.249 µM
13,CCc1ncnc(-c2ccc(C(=O)N3CCC4(CC3)OCCCO4)c(C)c2)c1C#Cc1ccc(N)nc1 [Example E-117],0.0735 µM
14,CCc1ncnc(-c2cc(F)c(C(=O)NC)c(F)c2)c1C#Cc1ccc(N)nc1 [Example E-12],0.065 µM
15,CCc1ncnc(-c2cc(F)c(C(=O)N3CCN(C(C)C)CC3)c(Cl)c2)c1C#Cc1ccc(N)nc1 [Example E-234],0.263 µM
16,CCc1ncnc(-c2cc(F)c(C(=O)N3CC[C@@H](N(C)C)C3)c(F)c2)c1C#Cc1ccc(NC)nc1 [Example E-209],0.546 µM
17,CCc1ncnc(-c2ccc(C(=O)N3CCN(C(C)=O)CC3)c(OC)c2)c1C#Cc1ccc(N)nc1 [Example D-56],0.073 µM
18,CCc1ncnc(-c2ccc(C(=O)N3CCCOCC3)c(C)c2)c1C#Cc1ccc(N)nc1 [Example E-133],0.0779 µM
19,CCc1ncnc(-c2ccc(C(=O)N(C)CCN3CCCC3=O)c(Cl)c2)c1C#Cc1ccc(N)nc1 [Example E-85],0.0564 µM
20,CCc1ncnc(-c2ccc(C(=O)N(C)OC)c(OC)c2)c1C#Cc1ccc(N)nc1 [Example E-60],0.0694 µM
21,CCc1ncnc(-c2ccc(C(=O)N3C[C@H]4CN(C(=O)OC(C)(C)C)C[C@H]4C3)c(F)c2)c1C#Cc1ccc(N)nc1 [Example E-329],0.238 µM
22,CCc1ncnc(-c2ccc(C(=O)N3CCN(c4ccncc4)CC3)c(Cl)c2)c1C#Cc1ccc(N)nc1 [Example D-155],0.209 µM
23,CCc1ncnc(-c2ccc(C(=O)N3CCNCC3)c(C)c2)c1C#Cc1ccc(N)nc1 [Example E-127],0.158 µM
24,CCc1ncnc(-c2ccc(C(=O)N3CCN4CCCC[C@H]4C3)c(Cl)c2)c1C#Cc1ccc(N)nc1 [Example E-143],0.127 µM
25,CCc1ncnc(-c2ccc(C(=O)N3CCN(C(C)C)CC3)c(OC)c2)c1C#Cc1ccc(N)nc1 [Example D-50],0.211 µM

row,SMILES,IC50
1,CCc1ncnc(-c2ccc(C(=O)N3CCN(CCCS(C)(=O)=O)CC3)c(Cl)c2)c1C#Cc1ccc(N)nc1 [Example E-257],0.0583 µM
2,CCc1ncnc(-c2ccc(C(=O)N3CCN(C(C)C)CC3)c(F)c2)c1C#Cc1ccc(N)nc1 [Example D-122],0.198 µM
3,CCc1ncnc(-c2ccc(C(=O)N3CC(O)CO3)c(C)c2)c1C#Cc1ccc(N)nc1 (centres unmarked) [Example E-93],0.107 µM
4,CCOC(=O)N1CCN(C(=O)c2ccc(-c3ncnc(CC)c3C#Cc3ccc(N)nc3)cc2F)CC1 [Example D-116],0.129 µM
5,CCc1ncnc(-c2ccc(C(=O)N3CCC(OC)CC3)c(Cl)c2)c1C#Cc1ccc(N)nc1 [Example E-24],0.0935 µM
6,CCc1ncnc(-c2cc(F)c(C(=O)N(C)C3CCN(C)CC3)c(F)c2)c1C#Cc1ccc(N)nc1 [Example E-176],0.491 µM
7,CCc1ncnc(-c2cc(C)nc(C)c2)c1C#Cc1ccc(N)nc1 [Example C-4],0.029 µM
8,CCc1ncnc(-c2ccc(C(=O)N3CCC(CCO)CC3)c(F)c2)c1C#Cc1ccc(N)nc1 [Example D-104],0.125 µM
9,CCc1ncnc(-c2cc(F)c(C(=O)N3CCn4cnnc4C3)c(Cl)c2)c1C#Cc1ccc(N)nc1 [Example E-156],0.0183 µM
10,CCc1ncnc(-c2ccc(Cl)c(C(=O)NC)c2)c1C#Cc1ccc(N)nc1 [Example C-49],0.067 µM
11,CCc1ncnc(-c2ccc(C(=O)N3CCCO3)c(Cl)c2)c1C#Cc1ccc(N)nc1 [Example E-74],0.0539 µM
12,CCc1ncnc(-c2ccc(C(=O)N3CCN(Cc4ccccc4)CC3)c(C)c2)c1C#Cc1ccc(N)nc1 [Example E-115],0.154 µM
13,CCc1ncnc(-c2ccc(C(=O)N3CCC(N4CCN(C)CC4)CC3)c(F)c2)c1C#Cc1ccc(N)nc1 [Example D-62],0.205 µM
14,CNC(=O)c1ccc(-c2ncnc(C)c2C#Cc2ccc(N)nc2)cc1Cl [Example C-5],0.05 µM
15,CCc1ncnc(-c2ccc(C(=O)N3CCN(C4CCN(C)CC4)CC3)c(F)c2)c1C#Cc1ccc(N)nc1 [Example D-64],0.198 µM
16,CCc1ncnc(-c2ccc(C(=O)N3CCN(CC(=O)N(C)C)CC3)c(F)c2)c1C#Cc1ccc(N)nc1 [Example D-85],0.115 µM
17,CCc1ncnc(-c2ccc(C(=O)N3CCC(C4CCN(C)CC4)CC3)c(Cl)c2)c1C#Cc1ccc(N)nc1 [Example D-139],0.374 µM
18,CCc1ncnc(-c2ccc(C(=O)N3CCN4CCCC[C@H]4C3)c(F)c2)c1C#Cc1ccc(N)nc1 [Example E-144],0.169 µM
19,CCc1ncnc(-c2ccc(C(=O)N3CCN(C4CCOCC4)CC3)c(Cl)c2)c1C#Cc1ccc(NC)nc1 [Example E-186],0.325 µM
20,CCc1ncnc(-c2ccc(C(=O)N3CCn4c(COC)nnc4C3)c(F)c2)c1C#Cc1ccc(N)nc1 [Example E-163],0.0508 µM
21,CCc1ncnc(-c2cc(F)c(C(=O)N3CCN(CCN)CC3)c(Cl)c2)c1C#Cc1ccc(N)nc1 [Example E-286],0.527 µM
22,CCc1ncnc(-c2ccc(C(=O)N3CCOCC3)c(F)c2)c1C#Cc1ccc(N)nc1C [Example D-20],0.116 µM
23,CCc1ncnc(-c2ccc(C(=O)N3CCC(N4CCCCCC4)CC3)c(C)c2)c1C#Cc1ccc(N)nc1 [Example E-102],0.289 µM
24,CCc1ncnc(-c2ccc(C(=O)N3CCC(C(C)(C)O)CC3)c(C)c2)c1C#Cc1ccc(N)nc1 [Example E-87],0.0788 µM
25,Cc1ccc(-c2ncnc(C)c2C#Cc2ccc(N)nc2)cn1 [Example C-24],0.059 µM

row,SMILES,IC50
1,CCc1ncnc(-c2cc(F)c(C(=O)N3CCC(C(C)(C)O)CC3)c(Cl)c2)c1C#Cc1ccc(N)nc1 [Example E-237],0.121 µM
2,CON(C)C(=O)c1ccc(-c2ncnc(C)c2C#Cc2ccc(N)nc2)cc1F [Example D-229],0.065 µM
3,CCc1ncnc(-c2ccc(C(=O)N3CCN(CCN(C)C)CC3)c(F)c2)c1C#Cc1ccc(N)nc1 [Example D-99],0.452 µM
4,CCc1ncnc(-c2ccc(C(=O)N(C)O)c(Cl)c2)c1C#Cc1ccc(N)nc1 [Example D-153],0.067 µM
5,CCc1ncnc(-c2cc(F)c(C(=O)N3CCN(C(C)COC)CC3)c(F)c2)c1C#Cc1ccc(N)nc1 (centres unmarked) [Example E-298],0.187 µM
6,CCc1ncnc(-c2cc(F)c(C(=O)N3CCC(C(C)(C)O)CC3)c(F)c2)c1C#Cc1ccc(NC)nc1 [Example E-214],0.6 µM
7,CCc1ncnc(-c2ccc(C(=O)N3CCN(S(=O)(=O)CC)CC3)c(F)c2)c1C#Cc1ccc(N)nc1 [Example D-89],0.052 µM
8,CCc1ncnc(-c2cc(Cl)c(C(=O)N3CCN(CC(F)F)CC3)c(Cl)c2)c1C#Cc1ccc(N)nc1 [Example E-202],0.0858 µM
9,CCc1ncnc(-c2ccc(C(=O)N3CCC4(CC3)CC(NC(=O)OC(C)(C)C)C4)c(F)c2)c1C#Cc1ccc(N)nc1 [Example E-319],0.36 µM
10,CCc1ncnc(-c2cc(F)c(C(=O)N3CCC4(CC3)CNC4)c(F)c2)c1C#Cc1ccc(N)nc1 [Example E-161],0.925 µM
11,CCc1ncnc(-c2ccc(C(=O)N3CCN(Cc4ccccc4)CC3)c(F)c2)c1C#Cc1ccc(N)nc1 [Example D-97],0.476 µM
12,CCc1ncnc(-c2ccc(C(=O)N3CCN(C4CCCC4O)CC3)c(F)c2)c1C#Cc1ccc(N)nc1 (centres unmarked) [Example E-294],0.137 µM
13,CCc1ncnc(-c2ccc(C(=O)N3CCC4(CC3)CNCCO4)c(F)c2)c1C#Cc1ccc(N)nc1 [Example E-322],0.391 µM
14,Cc1ncnc(-c2ccc(F)c(C(=O)N(C)C)c2)c1C#Cc1ccc(N)nc1 [Example C-9],0.254 µM
15,CCc1ncnc(-c2ccc(C(=O)N3CC[C@H](O)C3)c(F)c2)c1C#Cc1ccc(N)nc1 [Example D-203],0.057 µM
16,CCc1ncnc(-c2ccc(C(=O)N3CCN(/C(=N\C#N)NC)CC3)c(F)c2)c1C#Cc1ccc(N)nc1 [Example D-117],0.027 µM
17,CCc1ncnc(-c2ccc(C(=O)N3CCN(c4ccccn4)CC3)c(Cl)c2)c1C#Cc1ccc(N)nc1 [Example D-37],0.118 µM
18,CCc1ncnc(-c2ccc(C(=O)N3CC4(CNC4)C3)c(F)c2)c1C#Cc1ccc(N)nc1 [Example E-269],0.252 µM
19,CCc1ncnc(-c2ccc(C(=O)N3CCC4(CC3)CN(C)C4)c(F)c2)c1C#Cc1ccc(N)nc1 [Example E-339],0.331 µM
20,CCc1ncnc(-c2ccc(C(=O)N3C[C@@H]4CCN(C(=O)OC(C)(C)C)[C@@H]4C3)c(F)c2)c1C#Cc1ccc(N)nc1 [Example E-331],0.151 µM
21,CCc1ncnc(-c2ccc(C(=O)N3CCCCO3)cc2)c1C#Cc1ccc(N)nc1 [Example D-223],0.077 µM
22,CCc1ncnc(-c2ccc(C(=O)N3CCCN(C)CC3)c(C)c2)c1C#Cc1ccc(N)nc1 [Example E-129],0.237 µM
23,CCc1ncnc(-c2cc(F)c(C(=O)N3CCN(CC)CC3)c(Cl)c2)c1C#Cc1ccc(N)nc1 [Example E-235],0.178 µM
24,CCc1ncnc(-c2cc(F)c(C(=O)N3CCN(C)CC3)c(F)c2)c1C#Cc1ccc(N)nc1 [Example E-1],0.132 µM
